According to US20030113815A1, “Canine peroxisome proliferator activated receptor gamma” (Pfizer Inc., priority 2001, published 2003):

Test system: TNF-α expression in canine DH82 cells
Test: Effect of PPARγ agonist on TNF-α mRNA levels (Q-PCR) in canine DH82 cells
Assay type: cell-based
Conditions: two hours, normalized to GAPDH
Procedure: Canine DH82 cells (ATCC No. CRL-10389) were cultured in RPMI 1640 medium containing 2 mM L-glutamine, 25 mM Hepes, 10% fetal bovine serum (FBS) and 1× antimycotic at 37° C., 95% humidity, and 5% CO2. Cells were treated with 10 nM PMA (Sigma-Aldrich, St. Louis, Mo.), PMA (10 nM) plus darglitazone (10 uM), and darglitazone (10 μM), respectively for two hours. After treatment, cell RNA lysis buffer was added to the cells. Samples were loaded into MagNa Pure™ machine (F. Hoffmann-La Roche, Basel, Switzerland). MagNa Pure LC™ RNA isolation Kit II (F. Hoffmann-La Roche) was used for isolation of total RNA from culture cells. First strand cDNA synthesis kit for RT-PCR (F. Hoffmann-La Roche) was used to synthesize cDNA. Samples were incubated at 25° C. for 10 minutes and then at 42° C. for 60 minutes, denatured at 90° C. for 5 minutes and cooled to 4° C. for 1-2 hr or at −20° C. for longer periods. Quantification PCR (Q-PCR) was performed using the Lightcycler Faster DNA Master SYBR Green 1™ kit (F. Hoffmann-La Roche) using canine TNF-α primers (forward primer: 5′ […], reverse primer: 5′ […]). […] For quantification, melting points were measured every 0.2° C. from 60° C. to 99° C. using fluorescence detection. […]

Cc1oc(-c2ccccc2)nc1CCC(=O)c1ccc(CC2SC(=O)NC2=O)cc1 (centres unmarked) [darglitazone]
reduction of TNF-α expression in PMA stimulated cells (PMA 10 nM plus darglitazone 10 uM, FIG. 2B): about 15%
reduction of TNF-α expression from the basal level (unstimulated, darglitazone 10 μM, control basal level = 100%, FIG. 2A): about 40%
